This data set in a line: pKa values by non-aqueous titration (half neutralization potential). The format is physicochemical. The settings on record: for HPN: 1:1 acetonitrile:chloroform, 0.1N perchloric acid/dioxane titrant. As to the method: In order to determine the pKa values of water insoluble materials, organic references with known pKa values in water are titrated non-aqueously. A plot of the half neutralization potential (HNP) versus the known aqueous pKa value of the reference material is established. The HNP of the test material is determined and extrapolated to find the corresponding pKa value of the test material. Such organic reference materials include 2,2,6,6-tetrarnethylpiperidine; 4-hydroxy-2,2,6,6-tetramethylpiperidine; 1-hydroxyethyl-4-hydroxy-2,2,6,6-tetramethylpiperidine; triacetoneamine and N-methylaniline.
The reference materials, which are structurally at least peripherally related to the instant test materials and are soluble in both water and 1:1 acetonitrile:chloroform, are used to make a calibration plot in the non-aqueous titration (1:1 acetonitrile:chloroform solvent and 0.1N perchloric acid/dioxane titrant) system. Approximately 0.5 milliequivalents of test material is weighed into a titration beaker. Thirty mL of acetonitrile is added to dissolve the sample. Prior to titration, 30 mL of chloroform is added. Titration is carried out and the HNP is determined. The electrolyte for the reference electrode is 2-(aminomethylpyridine. The electrode is allowed to stand in the solvent system for two hours after filling with the electrolyte to achieve equilibration. All samples are run in duplicate. The pKa values are seen in the table below.

[1] abbreviates: extrapolated from HNP versus known aqueous pKa of reference materials.
Where [2] appears, read: extrapolated from HNP versus known aqueous pKa of reference materials, read-out: Calculated pKa.
[3] abbreviates: pKa of the test hindered amine contained in the formulation, read-out: HALS pKa.

Where two headings read alike, the source gives them in different places.

The compound `CC(C)(O)CON1C(C)(C)CC(OC(=O)CCCCCCCCC(=O)OC2CC(C)(C)N(OCC(C)(C)O)C(C)(C)C2)CC1(C)C` [Example 2] registered an HPN of 513 mv. Moreover, the “Calculated pKa” value under setting [1] is 3.8.

For `CCCCCCCCCCCCCCCCCC(=O)OC1CC(C)(C)N(OCC(C)(C)O)C(C)(C)C1` [Example 73, 1-(2-Hydroxy-2-methylpropoxy)-4-octadecanoyloxy-2,2,6,6-tetramethylpiperidine], the HPN is reported as 523 mv. Besides, the pKa under setting [2] was 3.9. The pKa under setting [3] was 4.

Take `CCCCCCCCCCCCCCCCCC(=O)OC1CC(C)(C)N(OC2CCCCC2)C(C)(C)C1` [II, 1-cyclohexyloxy-4-ocatadecanoyloxy-2,2,6,6-tetramethylpiperidine]: the HPN amounted to 436 mv. Besides, the “Calculated pKa” value under setting [1] is 4.9.

Regarding `CCCCCCCCON1C(C)(C)CC(OC(=O)CCCCCCCCC(=O)OC2CC(C)(C)N(OCCCCCCCC)C(C)(C)C2)CC1(C)C` [TINUVIN® 123, bis(1-octyloxy-2,2,6,6-tetramethylpiperidin-4-yl) sebacate], the pKa was 4.6 under setting [2] and 4.6 under setting [3].

In the case of `CC1(C)CC(OC(=O)CCCCCCCCC(=O)OC2CC(C)(C)NC(C)(C)C2)CC(C)(C)N1` [TINUVIN® 770, bis(2,2,6,6-tetramethylpiperidin-4-yl) sebacate], the pKa under setting [3] was determined as 9.1.

As usually defined, the pKa is the negative logarithm of the acid dissociation constant.

(Values after patent US6376584B1, “Hydroxy-substituted N-alkoxy hindered amines and compositions stabilized therewith” (Ciba Specialty Chemicals Corporation, priority 1999, dated 2002).)
